Where a name gives a salt, the structure may show the parent alone. Values belong to the compound of their own block, whether it stands above or below them.
What was measured:
Experiment in all cases: MIC, NCCLS broth microdilution
Type in all cases: cell-based
Enterobacter cloacae P99 = conditions: for MIC of antibiotic at fixed inhibitor concentration (4 mg/L): MIC of antibiotic compound 1 with the labelled bridged monobactam of formula II and clavulanate, 4 mg/L each
Serratia marcescens S6 = conditions: for MIC of antibiotic at fixed inhibitor concentration (4 mg/L): MIC of antibiotic compound 1 with the labelled bridged monobactam of formula II and clavulanate, 4 mg/L each
[1] = test system: Klebsiella pneumoniae CF104; conditions: for MIC of antibiotic at fixed inhibitor concentration (4 mg/L): MIC of antibiotic compound 1 with the labelled bridged monobactam of formula II and clavulanate, 4 mg/L each
Acinetobacter sp. J2 = conditions: for MIC of antibiotic at fixed inhibitor concentration (4 mg/L): Acinetobacter sp. J2, MIC of antibiotic compound 1 with the labelled bridged monobactam of formula II and clavulanate, 4 mg/L each
[2] = test system: Pseudomonas aeruginosa MK1184; conditions: for MIC of antibiotic at fixed inhibitor concentration (4 mg/L): MIC of antibiotic compound 1 with the labelled bridged monobactam of formula II and clavulanate, 4 mg/L each
[3] = test system: Stenotrophomonas malthophilia 1AC736; conditions: for MIC of antibiotic at fixed inhibitor concentration (4 mg/L): Stenotrophomonas malthophilia 1AC736, MIC of antibiotic compound 1 with the labelled bridged monobactam of formula II and clavulanate, 4 mg/L each
[4] = test system: Pseudomonas aeruginosa 1973E; conditions: for MIC of antibiotic at fixed inhibitor concentration (4 mg/L): MIC of antibiotic compound 1 with the labelled bridged monobactam of formula II and clavulanate, 4 mg/L each
Outline: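 Compounds were serially diluted per NCCLS M7-A5 (final DMSO no more than 1%) and incubated with bacteria overnight at 30° C. or 37° C. Visible growth was then judged by eye. For combinations, partner compounds sat in every well at a constant 4 μg/mL each.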

MIC of antibiotic at fixed inhibitor concentration (4 mg/L) (Enterobacter cloacae P99): 32 µg/mL
MIC of antibiotic at fixed inhibitor concentration (4 mg/L) (Serratia marcescens S6): 0.25 µg/mL
MIC of antibiotic at fixed inhibitor concentration (4 mg/L) [1]: 0.125 µg/mL
MIC of antibiotic at fixed inhibitor concentration (4 mg/L) (Acinetobacter sp. J2): >32 µg/mL
MIC of antibiotic at fixed inhibitor concentration (4 mg/L) [2]: >32 µg/mL
MIC of antibiotic at fixed inhibitor concentration (4 mg/L) [3]: 0.25 µg/mL
MIC of antibiotic at fixed inhibitor concentration (4 mg/L) [4]: 4 µg/mL
Compound: CC(C)c1cc[n+](CC(=O)N2CC[C@@H]3[C@H]2C(=O)N3S(=O)(=O)[O-])cc1 [Compound 113, (1S,5R)-2-{2-[4-(isopropyl)pyridinium]acetyl}-7-oxo-2,6-diazabicyclo[3.2.0]heptane-6-sulfonate, inner salt]

MIC of antibiotic at fixed inhibitor concentration (4 mg/L) (Enterobacter cloacae P99): 32 µg/mL
MIC of antibiotic at fixed inhibitor concentration (4 mg/L) (Serratia marcescens S6): 0.25 µg/mL
MIC of antibiotic at fixed inhibitor concentration (4 mg/L) [1]: 0.5 µg/mL
MIC of antibiotic at fixed inhibitor concentration (4 mg/L) (Acinetobacter sp. J2): 16 µg/mL
MIC of antibiotic at fixed inhibitor concentration (4 mg/L) [2]: 8 µg/mL
MIC of antibiotic at fixed inhibitor concentration (4 mg/L) [3]: 0.125 µg/mL
MIC of antibiotic at fixed inhibitor concentration (4 mg/L) [4]: 16 µg/mL
Compound: COC(=O)c1ccc[n+](CC(=O)N2CC[C@@H]3[C@H]2C(=O)N3S(=O)(=O)[O-])c1 [Compound 116, (1S,5R)-2-{2-[3-(methoxycarbonyl)pyridinium]acetyl}-7-oxo-2,6-diazabicyclo[3.2.0]heptane-6-sulfonate, inner salt]

MIC of antibiotic at fixed inhibitor concentration (4 mg/L) (Enterobacter cloacae P99): 16 µg/mL
MIC of antibiotic at fixed inhibitor concentration (4 mg/L) (Serratia marcescens S6): 0.25 µg/mL
MIC of antibiotic at fixed inhibitor concentration (4 mg/L) [1]: 0.25 µg/mL
MIC of antibiotic at fixed inhibitor concentration (4 mg/L) (Acinetobacter sp. J2): >32 µg/mL
MIC of antibiotic at fixed inhibitor concentration (4 mg/L) [2]: >32 µg/mL
MIC of antibiotic at fixed inhibitor concentration (4 mg/L) [3]: 0.125 µg/mL
MIC of antibiotic at fixed inhibitor concentration (4 mg/L) [4]: 4 µg/mL
Compound: O=C(Nc1ccc2[nH]c(=O)[nH]c2c1)N1CC[C@@H]2[C@H]1C(=O)N2S(=O)(=O)[O-].[Na+] [Compound 319, Sodium(1S,5R)-7-oxo-2-[N-(2-oxo(3-hydrobenzimidazol-5-yl))carbamoyl]-2,6-diazabicyclo[3.2.0]heptane-6-sulfonate]

MIC of antibiotic (Enterobacter cloacae P99; antibiotic alone, no inhibitor): >32 µg/mL
MIC of antibiotic at fixed inhibitor concentration of 4 mg/L (Enterobacter cloacae P99; with 102 and clavulanate): 8 µg/mL
MIC of antibiotic at fixed inhibitor concentration of 4 mg/L (Enterobacter cloacae P99; with 324 and clavulanate): 4 µg/mL
MIC of antibiotic at fixed inhibitor concentration of 4 mg/L (Enterobacter cloacae P99; with 324 and sulbactam): 8 µg/mL
MIC of antibiotic (Serratia marcescens S6; antibiotic alone, no inhibitor): 0.25 µg/mL
MIC of antibiotic at fixed inhibitor concentration of 4 mg/L (Serratia marcescens S6; with 102 and clavulanate): 0.25 µg/mL
MIC of antibiotic at fixed inhibitor concentration of 4 mg/L (Serratia marcescens S6; with 324 and clavulanate): 0.25 µg/mL
MIC of antibiotic at fixed inhibitor concentration of 4 mg/L (Serratia marcescens S6; with 324 and sulbactam): 0.5 µg/mL
MIC of antibiotic ([1]; antibiotic alone, no inhibitor): >32 µg/mL
MIC of antibiotic at fixed inhibitor concentration of 4 mg/L ([1]; with 102 and clavulanate): 1 µg/mL
MIC of antibiotic at fixed inhibitor concentration of 4 mg/L ([1]; with 324 and clavulanate): 1 µg/mL
MIC of antibiotic at fixed inhibitor concentration of 4 mg/L ([1]; with 324 and sulbactam): 2 µg/mL
MIC of antibiotic (Acinetobacter sp. J2; Acinetobacter baumannii J2, antibiotic alone, no inhibitor): 16 µg/mL
MIC of antibiotic at fixed inhibitor concentration of 4 mg/L (Acinetobacter sp. J2; Acinetobacter baumannii J2, with 102 and clavulanate): 8 µg/mL
MIC of antibiotic at fixed inhibitor concentration of 4 mg/L (Acinetobacter sp. J2; Acinetobacter baumannii J2, with 324 and clavulanate): 8 µg/mL
MIC of antibiotic at fixed inhibitor concentration of 4 mg/L (Acinetobacter sp. J2; Acinetobacter baumannii J2, with 324 and sulbactam): 2 µg/mL
MIC of antibiotic ([2]; antibiotic alone, no inhibitor): 8 µg/mL
MIC of antibiotic at fixed inhibitor concentration of 4 mg/L ([2]; with 102 and clavulanate): 8 µg/mL
MIC of antibiotic at fixed inhibitor concentration of 4 mg/L ([2]; with 324 and clavulanate): 8 µg/mL
MIC of antibiotic at fixed inhibitor concentration of 4 mg/L ([2]; with 324 and sulbactam): 8 µg/mL
MIC of antibiotic ([3]; Stenotrophomonas maltophilia 1AC736, antibiotic alone, no inhibitor): 1 µg/mL
MIC of antibiotic ([4]; antibiotic alone, no inhibitor): 8 µg/mL
MIC of antibiotic at fixed inhibitor concentration of 4 mg/L ([4]; with 102 and clavulanate): 8 µg/mL
MIC of antibiotic at fixed inhibitor concentration of 4 mg/L ([4]; with 324 and clavulanate): 16 µg/mL
MIC of antibiotic at fixed inhibitor concentration of 4 mg/L ([4]; with 324 and sulbactam): 16 µg/mL
Compound: C[C@H](ON1C(=O)[C@@H](NC(=O)/C(=N\OCc2cc(=O)c(O)cn2O)c2csc(N)n2)[C@@H]1C)C(=O)O [Compound 23, (2S)-2-((3S,4S)-3-{(2Z)-2-(2-amino(1,3-thiazol-4-yl))-3-[(1,5-dihydroxy-4-oxo(2-hydropyridyl))methoxy]-3-azaprop-2enoylamino}-4-methyl-2-oxoazetidinyloxy)propanoic acid]

MIC of antibiotic at fixed inhibitor concentration (4 mg/L) (Enterobacter cloacae P99): 32 µg/mL
MIC of antibiotic at fixed inhibitor concentration (4 mg/L) (Serratia marcescens S6): 0.125 µg/mL
MIC of antibiotic at fixed inhibitor concentration (4 mg/L) [1]: 0.5 µg/mL
MIC of antibiotic at fixed inhibitor concentration (4 mg/L) (Acinetobacter sp. J2): 4 µg/mL
MIC of antibiotic at fixed inhibitor concentration (4 mg/L) [2]: 16 µg/mL
MIC of antibiotic at fixed inhibitor concentration (4 mg/L) [3]: 0.125 µg/mL
MIC of antibiotic at fixed inhibitor concentration (4 mg/L) [4]: 4 µg/mL
Compound: O=C(NC1CC1)c1ccc[n+](CC(=O)N2CC[C@@H]3[C@H]2C(=O)N3S(=O)(=O)[O-])c1 [Compound 109, (1S,5R)-2-{2-[3-(N-cyclopropylcarbamoyl)pyridinium]acetyl}-7-oxo-2,6-diazabicyclo[3.2.0]heptane-6-sulfonate, inner salt]

MIC of antibiotic at fixed inhibitor concentration (4 mg/L) (Enterobacter cloacae P99): 32 µg/mL
MIC of antibiotic at fixed inhibitor concentration (4 mg/L) (Serratia marcescens S6): 2 µg/mL
MIC of antibiotic at fixed inhibitor concentration (4 mg/L) [1]: >32 µg/mL
MIC of antibiotic at fixed inhibitor concentration (4 mg/L) (Acinetobacter sp. J2): 4 µg/mL
MIC of antibiotic at fixed inhibitor concentration (4 mg/L) [2]: 32 µg/mL
MIC of antibiotic at fixed inhibitor concentration (4 mg/L) [3]: 0.125 µg/mL
MIC of antibiotic at fixed inhibitor concentration (4 mg/L) [4]: 8 µg/mL
Compound: O=C(CSc1nnnn1-c1ccccc1)N1CC[C@@H]2[C@H]1C(=O)N2S(=O)(=O)[O-].[Na+] [Compound 201]

From patent US20160122320A1, “USEFUL COMBINATIONS OF MONOBACTAM ANTIBIOTICS WITH BETA-LACTAMASE INHIBITORS” (Basilea Pharmaceutica AG, priority 2005, published 2016)
